Publication PMC12454493, “Insight on novel sulfamoylphenyl pyrazole derivatives as anticancer carbonic anhydrase inhibitors” (Molecular Diversity, 2024)

Legend:
Type in all cases: cell-based
[1] = tested on: CAKI-1; assay: NCI-60 one-dose SRB screen (Renal Cancer); details: Homo sapiens, single dose 10 µM, 48 h, read-out: Growth inhibition percent (GI %)
Description: (§1) The National Cancer Institute (NCI) Developmental Therapeutic Program (www.dtp.nci.nih.gov) selected the 20 novel synthesized compounds 4a-e, 5a-e, 6a-c, 9a-e, 10 and 11 to test for their anticancer activity at a single dose of 10 µM using SRB assay. […] Supplementary Data S3; Table S1 presents the detailed screening results of the most promising compounds. The preliminary screening’s detailed results for the remaining compounds are elucidated in the (Supplementary Data S3; Table S2).
(§2) The guidelines of the Drug Evaluation Branch’s protocol at the NCI in Bethesda served as the basis for the in vitro anticancer screening assays. at one dose 10 µM against a panel of 60 cancer cell lines. The human tumor cell lines used belonged to nine panels: leukemia, melanoma, lung, colon, CNS, ovarian, renal, prostate and breast cancers using the sulforhodamine B (SRB) assay in a 48 h drug exposure protocol.

[2] = tested on: KM12; assay: NCI-60 one-dose SRB screen (Colon Cancer); details: Homo sapiens, single dose 10 µM, 48 h, read-out: Growth inhibition percent (GI %)
Description: as §1, §2

[3] = tested on: HCC-2998; assay: NCI-60 one-dose SRB screen (Colon Cancer); details: Homo sapiens, single dose 10 µM, 48 h, read-out: Growth inhibition percent (GI %)
Description: as §1, §2

[4] = tested on: COLO 205; assay: NCI-60 one-dose SRB screen (Colon Cancer); details: Homo sapiens, single dose 10 µM, 48 h, read-out: Growth inhibition percent (GI %)
Description: as §1, §2

[5] = tested on: HCT-15; assay: NCI-60 one-dose SRB screen (Colon Cancer); details: Homo sapiens, single dose 10 µM, 48 h, read-out: Growth inhibition percent (GI %)
Description: as §1, §2

[6] = tested on: HT29; assay: NCI-60 one-dose SRB screen (Colon Cancer); details: Homo sapiens, HT-29, single dose 10 µM, 48 h, read-out: Growth inhibition percent (GI %)
Description: as §1, §2

[7] = tested on: SW-620; assay: NCI-60 one-dose SRB screen (Colon Cancer); details: Homo sapiens, single dose 10 µM, 48 h, read-out: Growth inhibition percent (GI %)
Description: as §1, §2

[8] = tested on: HCT-116; assay: NCI-60 one-dose SRB screen (Colon Cancer); details: Homo sapiens, single dose 10 µM, 48 h, read-out: Growth inhibition percent (GI %)
Description: as §1, §2

[9] = tested on: SK-MEL-28; assay: NCI-60 one-dose SRB screen (Melanoma); details: Homo sapiens, single dose 10 µM, 48 h, read-out: Growth inhibition percent (GI %)
Description: as §1, §2

[10] = tested on: LOX IMVI; assay: NCI-60 one-dose SRB screen (Melanoma); details: Homo sapiens, single dose 10 µM, 48 h, read-out: Growth inhibition percent (GI %)
Description: as §1, §2

[11] = tested on: UACC-257; assay: NCI-60 one-dose SRB screen (Melanoma); details: Homo sapiens, single dose 10 µM, 48 h, read-out: Growth inhibition percent (GI %)
Description: as §1, §2

[12] = tested on: MALME-3M; assay: NCI-60 one-dose SRB screen (Melanoma); details: Homo sapiens, single dose 10 µM, 48 h, read-out: Growth inhibition percent (GI %)
Description: as §1, §2

[13] = tested on: UACC-62; assay: NCI-60 one-dose SRB screen (Melanoma); details: Homo sapiens, single dose 10 µM, 48 h, read-out: Growth inhibition percent (GI %)
Description: as §1, §2

[14] = tested on: SK-MEL-5; assay: NCI-60 one-dose SRB screen (Melanoma); details: Homo sapiens, single dose 10 µM, 48 h, read-out: Growth inhibition percent (GI %)
Description: as §1, §2

[15] = tested on: M14; assay: NCI-60 one-dose SRB screen (Melanoma); details: Homo sapiens, single dose 10 µM, 48 h, read-out: Growth inhibition percent (GI %)
Description: as §1, §2

[16] = tested on: SK-MEL-2; assay: NCI-60 one-dose SRB screen (Melanoma); details: Homo sapiens, single dose 10 µM, 48 h, read-out: Growth inhibition percent (GI %)
Description: as §1, §2

[17] = tested on: MDA-MB-435; assay: NCI-60 one-dose SRB screen (Melanoma); details: Homo sapiens, single dose 10 µM, 48 h, read-out: Growth inhibition percent (GI %)
Description: as §1, §2

[18] = tested on: NCI/ADR-RES; assay: NCI-60 one-dose SRB screen (Ovarian cancer); details: Homo sapiens, single dose 10 µM, 48 h, read-out: Growth inhibition percent (GI %)
Description: as §1, §2

[19] = tested on: OVCAR-8; assay: NCI-60 one-dose SRB screen (Ovarian cancer); details: Homo sapiens, single dose 10 µM, 48 h, read-out: Growth inhibition percent (GI %)
Description: as §1, §2

[20] = tested on: OVCAR-3; assay: NCI-60 one-dose SRB screen (Ovarian cancer); details: Homo sapiens, single dose 10 µM, 48 h, read-out: Growth inhibition percent (GI %)
Description: as §1, §2

[21] = tested on: IGROV1; assay: NCI-60 one-dose SRB screen (Ovarian cancer); details: Homo sapiens, IGROV-1, single dose 10 µM, 48 h, read-out: Growth inhibition percent (GI %)
Description: as §1, §2

[22] = tested on: OVCAR-5; assay: NCI-60 one-dose SRB screen (Ovarian cancer); details: Homo sapiens, single dose 10 µM, 48 h, read-out: Growth inhibition percent (GI %)
Description: as §1, §2

[23] = tested on: SK-OV-3; assay: NCI-60 one-dose SRB screen (Ovarian cancer); details: Homo sapiens, single dose 10 µM, 48 h, read-out: Growth inhibition percent (GI %)
Description: as §1, §2

[24] = tested on: OVCAR-4; assay: NCI-60 one-dose SRB screen (Ovarian cancer); details: Homo sapiens, single dose 10 µM, 48 h, read-out: Growth inhibition percent (GI %)
Description: as §1, §2

[25] = tested on: SF-295; assay: NCI-60 one-dose SRB screen (CNS Cancer); details: Homo sapiens, single dose 10 µM, 48 h, read-out: Growth inhibition percent (GI %)
Description: as §1, §2

[26] = tested on: SNB-75; assay: NCI-60 one-dose SRB screen (CNS Cancer); details: Homo sapiens, single dose 10 µM, 48 h, read-out: Growth inhibition percent (GI %)
Description: as §1, §2

[27] = tested on: SF-268; assay: NCI-60 one-dose SRB screen (CNS Cancer); details: Homo sapiens, single dose 10 µM, 48 h, read-out: Growth inhibition percent (GI %)
Description: as §1, §2

[28] = tested on: SNB-19; assay: NCI-60 one-dose SRB screen (CNS Cancer); details: Homo sapiens, single dose 10 µM, 48 h, read-out: Growth inhibition percent (GI %)
Description: as §1, §2

[29] = tested on: U251; assay: NCI-60 one-dose SRB screen (CNS Cancer); details: Homo sapiens, U-251, single dose 10 µM, 48 h, read-out: Growth inhibition percent (GI %)
Description: as §1, §2

[30] = tested on: SF-539; assay: NCI-60 one-dose SRB screen (CNS Cancer); details: Homo sapiens, single dose 10 µM, 48 h, read-out: Growth inhibition percent (GI %)
Description: as §1, §2

Cc1ccc(-c2nn(-c3ccc(S(N)(=O)=O)cc3)cc2C(=O)OCC(=O)Nc2ccc(S(N)(=O)=O)cc2)cc1 [Compound 4b, 2-Oxo-2-[(4-sulfamoylphenyl)amino] ethyl 1-(4-sulfamoylphenyl)-3-(p-tolyl)-1H-pyrazole-4-carboxylate]
inhibition at 10 µM [1]: 15.2% | inhibition at 10 µM [2]: < 5% | inhibition at 10 µM [3]: < 5% | inhibition at 10 µM [4]: < 5% | inhibition at 10 µM [5]: < 5% | inhibition at 10 µM [6]: 11.6% | inhibition at 10 µM [7]: < 5% | inhibition at 10 µM [8]: < 5% | inhibition at 10 µM [9]: < 5% | inhibition at 10 µM [10]: < 5% | inhibition at 10 µM [11]: 5.42% | inhibition at 10 µM [12]: < 5% | inhibition at 10 µM [13]: < 5% | inhibition at 10 µM [14]: < 5% | inhibition at 10 µM [15]: < 5% | inhibition at 10 µM [16]: 8.94% | inhibition at 10 µM [17]: < 5% | inhibition at 10 µM [18]: < 5% | inhibition at 10 µM [19]: < 5% | inhibition at 10 µM [20]: < 5% | inhibition at 10 µM [21]: < 5% | inhibition at 10 µM [22]: 5.99% | inhibition at 10 µM [23]: < 5% | inhibition at 10 µM [24]: < 5% | inhibition at 10 µM [25]: < 5% | inhibition at 10 µM [26]: < 5% | inhibition at 10 µM [27]: 10.3% | inhibition at 10 µM [28]: < 5% | inhibition at 10 µM [29]: < 5% | inhibition at 10 µM [30]: 20.3%
